test system: Bovine cardiac myofibrils; assay: In vitro model of dose-dependent myofibril ATPase modulation (AC1.4, pyruvate kinase/lactate dehydrogenase-coupled ATPase assay at pCa25); format: biochemical; conditions: concentration at which ATPase activity was 1.4-fold higher than the bottom of the dose curve, mean of a minimum of two independent tests
Outline: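 Detergent-skinned bovine cardiac myofibrils (typically 0.25-1.0 mg/ml) in Ca-buffered (EGTA/CaCl2) PK/LDH-coupled ATPase assay: 12 mM K-PIPES pH 6.80, 2 mM MgCl2, 1 mM ATP, 1 mM DTT, 0.5 mM NADH, 1.5 mM PEP. Hydrolysis followed at 340 nm; dose response fit to 4-parameter equation; AC1.4 is mean of ≥2 tests.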

AC1.4 | SMILES
4.951 µM | CS(=O)(=O)c1cncc(C(=O)N2CCC[C@@H]2C(=O)NC(c2ccc(C(F)(F)F)cc2F)C2CC2)c1 (stereo partly drawn) [Example 809, (2R)-N-(cyclopropyl(2-fluoro-4-(trifluoromethyl)phenyl)methyl)-1-(5-(methylsulfonyl)nicotinoyl)pyrrolidine-2-carboxamide]
5.084 µM | Cc1ccc([C@H](NC(=O)[C@H]2C[C@H]3C[C@H]3N2C(=O)c2cccc(S(C)(=O)=O)c2)C2CC2)cc1F [Example 810, (1R,3R,5R)-N-((R)-cyclopropyl(3-fluoro-4-methylphenyl)methyl)-2-(3-(methylsulfonyl)benzoyl)-2-azabicyclo[3.1.0]hexane-3-carboxamide]
8.7795 µM | N#CC1CN(S(=O)(=O)N2CCC[C@H](C(=O)N3CCC[C@@H]3C(=O)NCCc3ccc(C(F)(F)F)cc3)C2)C1 [Example 811, 1-(((3S)-1-((3-cyano-1-azetidinyl)sulfonyl)-3-piperidinyl)carbonyl)-N-(2-(4-(trifluoromethyl)phenyl)ethyl)-D-prolinamide]
1.5766 µM | CS(=O)(=O)c1cccc(C(=O)N2[C@@H](C(=O)N[C@@H](c3cc(F)c(Cl)cc3F)C3(F)COC3)C[C@H]3C[C@H]32)c1 [Example 812, (1R,3R,5R)-N-((S)-(4-Chloro-2,5-difluorophenyl)(3-fluorooxetan-3-yl)methyl)-2-(3-(methylsulfonyl)benzoyl)-2-azabicyclo[3.1.0]hexane-3-carboxamide]
0.7101 µM | CS(=O)(=O)c1ccc(N)c(C(=O)N2[C@@H](C(=O)N[C@@H](c3ccc(C(F)(F)F)cc3F)C3CC3)C[C@H]3C[C@H]32)c1 [Example 813, (1R,3R,5R)-2-(2-amino-5-(methylsulfonyl)benzoyl)-N-((R)-cyclopropyl(2-fluoro-4-(trifluoromethyl)phenyl)methyl)-2-azabicyclo[3.1.0]hexane-3-carboxamide]
2.4 µM | COc1cc(C(=O)N2[C@@H](C(=O)N[C@@H](c3cc(F)c(C(F)(F)F)cc3F)C3COC3)C[C@H]3C[C@H]32)ccn1 [Example 815, (1R,3R,5R)-N-((R)-(2,5-difluoro-4-(trifluoromethyl)phenyl)(oxetan-3-yl)methyl)-2-(2-methoxyisonicotinoyl)-2-azabicyclo[3.1.0]hexane-3-carboxamide]
9.115 µM | CS(=O)(=O)c1cncc(C(=O)N2[C@@H](C(=O)N[C@@H](c3cc(F)c(Cl)cc3F)C(F)F)C[C@H]3C[C@H]32)c1 [Example 817, (1R,3R,5R)-N-((S)-1-(4-chloro-2,5-difluorophenyl)-2,2-difluoroethyl)-2-(5-(methylsulfonyl)nicotinoyl)-2-azabicyclo[3.1.0]hexane-3-carboxamide]
4.155 µM | Cc1cnn(C)c1C(=O)N1[C@@H](C(=O)N[C@@H](c2cc(F)c(C(F)(F)F)cc2F)C2COC2)C[C@H]2C[C@H]21 [Example 818, (1R,3R,5R)-N-((R)-(2,5-difluoro-4-(trifluoromethyl)phenyl)(oxetan-3-yl)methyl)-2-(1,4-dimethyl-1H-pyrazole-5-carbonyl)-2-azabicyclo[3.1.0]hexane-3-carboxamide]
1.3468 µM | CC(C)(O)c1cccc(C(=O)N2[C@@H](C(=O)N[C@@H](c3cc(F)c(C(F)(F)F)cc3F)C3COC3)C[C@H]3C[C@H]32)c1 [Example 819, (1R,3R,5R)-N-((R)-(2,5-difluoro-4-(trifluoromethyl)phenyl)(oxetan-3-yl)methyl)-2-(3-(2-hydroxypropan-2-yl)benzoyl)-2-azabicyclo[3.1.0]hexane-3-carboxamide]
0.9916 µM | Cc1cc(C(=O)N2[C@@H](C(=O)N[C@@H](c3cc(F)c(C(F)(F)F)cc3F)C3COC3)C[C@H]3C[C@H]32)c2[nH]ncc2c1 [Example 820, (1R,3R,5R)-N-((R)-(2,5-difluoro-4-(trifluoromethyl)phenyl)(oxetan-3-yl)methyl)-2-(5-methyl-1H-indazole-7-carbonyl)-2-azabicyclo[3.1.0]hexane-3-carboxamide]
1.2142 µM | O=C(N[C@@H](c1cc(F)c(C(F)(F)F)cc1F)C1CC1)[C@H]1C[C@H]2C[C@H]2N1C(=O)c1cc(Cl)cc2cn[nH]c12 [Example 821, (1R,3R,5R)-2-(5-chloro-1H-indazole-7-carbonyl)-N-((R)-cyclopropyl(2,5-difluoro-4-(trifluoromethyl)phenyl)methyl)-2-azabicyclo[3.1.0]hexane-3-carboxamide]
5.894 µM | Cc1cc(C(=O)N2[C@@H](C(=O)N[C@@H](c3cc(F)c(C(F)(F)F)cc3F)C3CC3)C[C@H]3C[C@H]32)c(C(C)O)cn1 (stereo partly drawn) [Example 822, (1R,3R,5R)-N-((R)-cyclopropyl(2,5-difluoro-4-(trifluoromethyl)phenyl)methyl)-2-(5-(l-hydroxyethyl)-2-methylisonicotinoyl)-2-azabicyclo[3.1.0]hexane-3-carboxamide]
2.768 µM | O=C(N[C@@H](c1cc(F)c(C(F)(F)F)cc1F)C1COC1)[C@H]1C[C@H]2C[C@H]2N1C(=O)c1cc(C(F)(F)F)on1 [Example 823, (1R,3R,5R)-N-((R)-(2,5-difluoro-4-(trifluoromethyl)phenyl)(oxetan-3-yl)methyl)-2-(5-(trifluoromethyl)isoxazole-3-carbonyl)-2-azabicyclo[3.1.0]hexane-3-carboxamide]

Further lines, the compound ahead of its results:

SMILES | AC1.4
CC(=O)N1CC(F)(c2cccc(C(=O)N3CCC[C@@H]3C(=O)N[C@@H](c3ccc(C(F)(F)F)cc3F)C3CC3)c2)C1 [Example 796, 1-(3-(l-acetyl-3-fluoro-3-azetidinyl)benzoyl)-N-((R)-cyclopropyl(2-fluoro-4-(trifluoromethyl)phenyl)methyl)-D-prolinamide] | 9.426 µM
Cc1cncc(C(=O)N2[C@@H](C(=O)N[C@@H](c3cc(F)c(C(F)(F)F)cc3F)C3CC3)C[C@H]3C[C@H]32)c1 [Example 797, (1R,3R,5R)-N-((R)-cyclopropyl(2,5-difluoro-4-(trifluoromethyl)phenyl)methyl)-2-((5-methyl-3-pyridinyl)carbonyl)-2-azabicyclo[3.1.0]hexane-3-carboxamide] | 9.447 µM
O=C(NCc1ccc(C(F)(F)F)nc1)[C@H]1CCCCN1C(=O)c1cccc(S(=O)(=O)N2CC(F)(F)C2)c1 [Example 798, (2R)-1-((3-((3,3-difluoro-1-azetidinyl)sulfonyl)phenyl)carbonyl)-N-((6-(trifluoromethyl)-3-pyridinyl)methyl)-2-piperidinecarboxamide] | 9.448 µM
N#CC1CN(S(=O)(=O)N2CCC[C@H](C(=O)N3CCC[C@@H]3C(=O)NC3CCC3C(F)(F)F)C2)C1 (stereo partly drawn) [Example 799, (2R)-1-((S)-1-((3-cyanoazetidin-1-yl)sulfonyl)piperidine-3-carbonyl)-N-(2-(trifluoromethyl)cyclobutyl)pyrrolidine-2-carboxamide] | 9.4535 µM
O=C(NCc1ccc(C(F)(F)F)cc1)[C@H]1CCCN1C(=O)[C@H]1CCCN(S(=O)(=O)N2CCC23CCC3)C1 [Example 800, 1-(((3S)-1-(1-azaspiro[3.3]hept-1-ylsulfonyl)-3-piperidinyl)carbonyl)-N-(4-(trifluoromethyl)benzyl)-D-prolinamide] | 9.537 µM
N#CC1CN(S(=O)(=O)N2CCC[C@H](C(=O)N3[C@@H]4C[C@@H]4C[C@H]3C(=O)NCc3ccc(C(F)(F)F)cc3)C2)C1 [Example 801, (1R,3S,5R)-2-(((3S)-1-((3-cyano-1-azetidinyl)sulfonyl)-3-piperidinyl)carbonyl)-N-(4-(trifluoromethyl)benzyl)-2-azabicyclo[3.1.0]hexane-3-carboxamide] | 9.578 µM
CN(C)S(=O)(=O)c1cccc(C(=O)N2CCC[C@@H]2C(=O)N[C@H](c2ccc(C(F)(F)F)cc2F)C2CC2)c1 [Example 802, N-((S)-cyclopropyl(2-fluoro-4-(trifluoromethyl)phenyl)methyl)-1-(3-(dimethylsulfamoyl)benzoyl)-D-prolinamide] | 9.6005 µM
C[C@H](NC(=O)[C@H]1CCCN1C(=O)[C@H]1CCCN(S(=O)(=O)N2CC(C#N)C2)C1)c1ccc(Cl)cc1 [Example 803, N-((1S)-1-(4-chlorophenyl)ethyl)-1-(((3S)-1-((3-cyano-1-azetidinyl)sulfonyl)-3-piperidinyl)carbonyl)-D-prolinamide] | 9.622 µM
CCC(NC(=O)[C@H]1CCCN1C(=O)[C@H]1CCCN(S(=O)(=O)N2CC(C#N)C2)C1)c1ccccc1OC (stereo partly drawn) [Example 804, (2R)-1-((S)-1-((3-cyanoazetidin-1-yl)sulfonyl)piperidine-3-carbonyl)-N-(1-(2-methoxyphenyl)propyl)pyrrolidine-2-carboxamide] | 9.7525 µM
CS(=O)(=O)c1cc(C(=O)N2CCC[C@@H]2C(=O)N[C@@H](c2ccc(C(F)(F)F)cc2F)C2CC2)ccc1N [Example 805, 1-(4-amino-3-(methylsulfonyl)benzoyl)-N-((R)-cyclopropyl(2-fluoro-4-(trifluoromethyl)phenyl)methyl)-D-prolinamide] | 9.817 µM
CC(=O)N1CC(NS(=O)(=O)N2CCC[C@H](C(=O)N3CCC[C@@H]3C(=O)NCc3ccc(C(F)(F)F)cc3)C2)C1 [Example 806, 1-(((3S)-1-((l-acetyl-3-azetidinyl)sulfamoyl)-3-piperidinyl)carbonyl)-N-(4-(trifluoromethyl)benzyl)-D-prolinamide] | 10 µM
CC(C)[C@@H](NC(=O)[C@H]1CCCN1C(=O)c1cccc(S(C)(=O)=O)c1)c1ccc(C(F)(F)F)cc1F [Example 807, N-((1R)-1-(2-fluoro-4-(trifluoromethyl)phenyl)-2-methylpropyl)-1-(3-(methylsulfonyl)benzoyl)-D-prolinamide] | 4.609 µM
COc1ccc(S(C)(=O)=O)cc1C(=O)N1[C@@H](C(=O)N[C@@H](c2ccc(C(F)(F)F)cc2)C2COC2)C[C@H]2C[C@H]21 [Example 808, (1R,3R,5R)-2-(2-methoxy-5-(methylsulfonyl)benzoyl)-N-((R)-3-oxetanyl(4-(trifluoromethyl)phenyl)methyl)-2-azabicyclo[3.1.0]hexane-3-carboxamide] | 4.6765 µM
